From patent US20080118441A1, “COMPOSITIONS AND METHODS FOR THE TREATMENT OF GASTROINTESTINAL CONDITIONS” (priority 2006, published 2008) come the findings set out here.

In this assay the test system is symptoms of a gastrointestinal condition. The assay is described as follows: ingestion of glutamine shortly after the present compositions. The assay is classed as in vivo. To be noted: glutamine ingested shortly after the compositions. The text has this: In one example, the symptoms of a gastrointestinal condition will reappear rapidly if glutamine is ingested shortly after the present compositions. Exclusion of glutamine from the present compositions is therefore contemplated, and it may be advisable for persons being treated with the present compositions to reduce dietary consumption of glutamine, especially within one hour of ingesting the disclosed composition. Typically, an average person consumes 5-10 grams glutamine per day. In one embodiment, a person being treated with the present composition consumes no glutamine within one hour of ingestion, and preferably consumes less than about 5 grams glutamine per day, more preferably less than about 4.5 grams glutamine per day, and most preferably less than about 4 grams glutamine per day.

With `NC(=O)CC[C@H](N)C(=O)O` [glutamine], the “effect on the therapeutic effect of the disclosed compositions” value is reported as “counteracts the therapeutic effect”.
